Experimental data taken from ChEMBL document CHEMBL1154834, “A theoretical study of the structure-radical scavenging activity of trans-resveratrol analogues and cis-resveratrol in gas phase and water environment” (Eur J Med Chem, 2010).

Assay: Antioxidant activity assessed as concentration required to double citronellal oxidation half life by thermo-oxidation method relative to control
Assay type: functional

**Q.** Which Activity does the source give for `Oc1ccc(/C=C/c2cc(O)cc(O)c2)cc1` here?
**A.** The Activity was 135 µM.

**Q.** For `Oc1ccc(/C=C\c2cc(O)cc(O)c2)cc1`, which Activity is on record?
**A.** The Activity was 241 µM.

**Q.** With `Oc1ccc(CCc2cc(O)cc(O)c2)cc1` as the compound, how does the Activity read?
**A.** The Activity was 260 µM.
